# Results from PubChem BioAssay AID308 (DTP/NCI, 2004).
# Values joined by “and” are separate entries in the source; they are usually repeats but may differ in a detail not shown here. Equal entries are not always repeated. Toxic doses and inconclusive results are not listed.
# Test system: BDF1 mice, L1210 6-MP/6-TG resistant leukemia ip, survival T/C
# Assay: NCI In Vivo Anticancer Drug Screen. Data for tumor model L1210 Leukemia resistant to 6-MP and 6-Thioguanine; NSC 755, NSC 752 (intraperitoneal) in B6D2F1 (BDF1) mice
# Settings: endpoint: mean survival time, higher = longer survival
# Method: The antitumor activity of compounds was measured in mice bearing transplantable tumors. Survival or tumor size were measured and the results are expressed as the measurement made in the treated group (T) divided by the measurement made in the vehicle treated control group (C). The tumor model used in this assay is L1210 Leukemia resistant to 6-MP and 6-Thioguanine; NSC 755, NSC 752 (intraperitoneal) in B6D2F1 (BDF1) mice
# [1] = dose: 6.25 mg/kg/injection, schedule: Q01DX015 (ip), vehicle: carboxymethylcellulose (CMC)
# [2] = dose: 12.5 mg/kg/injection, schedule: Q01DX015 (ip), vehicle: carboxymethylcellulose (CMC)
compound,measurement,setting,value
Clc1ccc(C(c2ccccc2Cl)C(Cl)Cl)cc1 (centres undefined),T/C,"dose: 23.0 mg/kg/injection, schedule: Q01DX Z (sc), vehicle: steriod suspending solution",94 % of control
same,T/C,"dose: 46.0 mg/kg/injection, schedule: Q01DX Z (sc), vehicle: steriod suspending solution",97 % of control
same,T/C,"dose: 93.0 mg/kg/injection, schedule: Q01DX Z (sc), vehicle: steriod suspending solution",103 % of control
same,T/C,"dose: 187.0 mg/kg/injection, schedule: Q01DX Z (sc), vehicle: steriod suspending solution",101 % of control
same,T/C,"dose: 375.0 mg/kg/injection, schedule: Q01DX Z (sc), vehicle: steriod suspending solution",104 % of control
same,T/C,"dose: 500.0 mg/kg/injection, schedule: Q01DX Z (sc), vehicle: steriod suspending solution",100 % of control
same,T/C,"dose: 750.0 mg/kg/injection, schedule: Q01DX Z (sc), vehicle: steriod suspending solution",96 % of control
same,T/C,"dose: 1000.0 mg/kg/injection, schedule: Q01DX Z (sc), vehicle: steriod suspending solution",98 % of control
C=CCSc1ncnc2c1ncn2C1OC(CO)C(O)C1O (centres undefined),T/C,"dose: 5.0 mg/kg/injection, schedule: Q01DX015 (ip), vehicle: saline",112 % of control
same,T/C,"dose: 10.0 mg/kg/injection, schedule: Q01DX015 (ip), vehicle: saline",102 % of control
same,T/C,"dose: 20.0 mg/kg/injection, schedule: Q01DX015 (ip), vehicle: saline",100 % of control
same,T/C,"dose: 40.0 mg/kg/injection, schedule: Q01DX015 (ip), vehicle: saline",100 % of control
same,T/C,"dose: 50.0 mg/kg/injection, schedule: Q01DX015 (ip), vehicle: saline",105 % of control
same,T/C,"dose: 100.0 mg/kg/injection, schedule: Q01DX015 (ip), vehicle: saline",94 % of control
same,T/C,"dose: 200.0 mg/kg/injection, schedule: Q01DX015 (ip), vehicle: saline",90 % of control
CC(C)Cn1cnc2c(=S)nc(N)[nH]c21,T/C,"dose: 9.0 mg/kg/injection, schedule: Q01DX015 (ip), vehicle: other",107 % of control
same,T/C,"dose: 14.0 mg/kg/injection, schedule: Q01DX015 (ip), vehicle: other",106 % of control
same,T/C,"dose: 21.0 mg/kg/injection, schedule: Q01DX015 (ip), vehicle: other",102 % of control
same,T/C,"dose: 36.0 mg/kg/injection, schedule: Q01DX015 (ip), vehicle: other",95 % of control
NS(=O)(=O)c1ncnc2nc[nH]c12,T/C,"dose: 6.0 mg/kg/injection, schedule: Q01DX Z (ip), vehicle: carboxymethylcellulose (CMC)",122 % of control
same,T/C,"dose: 25.0 mg/kg/injection, schedule: Q01DX Z (ip), vehicle: saline",112 % of control
same,T/C,"dose: 50.0 mg/kg/injection, schedule: Q01DX Z (ip), vehicle: saline",96 % of control
CC(=O)CSc1ncnc2nc[nH]c12,T/C,"dose: 3.12 mg/kg/injection, schedule: Q01DX015 (ip), vehicle: carboxymethylcellulose (CMC)",93 % of control
same,T/C,[1],98 % of control
same,T/C,[2],103 % of control
same,T/C,"dose: 25.0 mg/kg/injection, schedule: Q01DX015 (ip), vehicle: carboxymethylcellulose (CMC)",96 % of control
same,T/C,"dose: 50.0 mg/kg/injection, schedule: Q01DX015 (ip), vehicle: carboxymethylcellulose (CMC)",96 % of control
same,T/C,"dose: 62.0 mg/kg/injection, schedule: Q01DX015 (ip), vehicle: carboxymethylcellulose (CMC)",100 % of control
same,T/C,"dose: 125.0 mg/kg/injection, schedule: Q01DX015 (ip), vehicle: carboxymethylcellulose (CMC)",100 % of control
same,T/C,"dose: 250.0 mg/kg/injection, schedule: Q01DX015 (ip), vehicle: carboxymethylcellulose (CMC)",95 % of control
Nc1nc(=S)c2ncn(C3OC(COC(=O)c4ccc(Cl)cc4)C(OC(=O)c4ccc(Cl)cc4)C3OC(=O)c3ccc(Cl)cc3)c2[nH]1 (centres undefined),T/C,[1],88 % of control
same,T/C,[2],87 % of control
same,T/C,"dose: 100.0 mg/kg/injection, schedule: Q01DX015 (ip), vehicle: carboxymethylcellulose (CMC)",86 % of control
O=NN(CCCl)C(=O)NCCCl,T/C,"dose: 2.0 mg/kg/injection, schedule: Q01DX015 (ip), vehicle: saline",166 % of control and 181 % of control and 196 % of control
same,T/C,"dose: 2.6 mg/kg/injection, schedule: Q01DX015 (ip), vehicle: saline",168 % of control
same,T/C,"dose: 6.0 mg/kg/injection, schedule: Q01DX015 (ip), vehicle: saline",156 % of control
same,T/C,"dose: 8.0 mg/kg/injection, schedule: Q01DX015 (ip), vehicle: saline",151 % of control and 157 % of control and 185 % of control
same,T/C,"dose: 9.0 mg/kg/injection, schedule: Q01DX015 (ip), vehicle: saline",164 % of control
same,T/C,"dose: 13.5 mg/kg/injection, schedule: Q01DX015 (ip), vehicle: saline",123 % of control
